31 molecules from patent publication US20230167073A1 (Teijin Pharma Limited, priority 2020, published 2023) can be followed below.

The experiment has as its target T1, Human TRPC6 (Homo sapiens, UniProt Q9Y210).
T1 construct: expressed in transfected cells
T1 sequence (Q9Y210 1-931): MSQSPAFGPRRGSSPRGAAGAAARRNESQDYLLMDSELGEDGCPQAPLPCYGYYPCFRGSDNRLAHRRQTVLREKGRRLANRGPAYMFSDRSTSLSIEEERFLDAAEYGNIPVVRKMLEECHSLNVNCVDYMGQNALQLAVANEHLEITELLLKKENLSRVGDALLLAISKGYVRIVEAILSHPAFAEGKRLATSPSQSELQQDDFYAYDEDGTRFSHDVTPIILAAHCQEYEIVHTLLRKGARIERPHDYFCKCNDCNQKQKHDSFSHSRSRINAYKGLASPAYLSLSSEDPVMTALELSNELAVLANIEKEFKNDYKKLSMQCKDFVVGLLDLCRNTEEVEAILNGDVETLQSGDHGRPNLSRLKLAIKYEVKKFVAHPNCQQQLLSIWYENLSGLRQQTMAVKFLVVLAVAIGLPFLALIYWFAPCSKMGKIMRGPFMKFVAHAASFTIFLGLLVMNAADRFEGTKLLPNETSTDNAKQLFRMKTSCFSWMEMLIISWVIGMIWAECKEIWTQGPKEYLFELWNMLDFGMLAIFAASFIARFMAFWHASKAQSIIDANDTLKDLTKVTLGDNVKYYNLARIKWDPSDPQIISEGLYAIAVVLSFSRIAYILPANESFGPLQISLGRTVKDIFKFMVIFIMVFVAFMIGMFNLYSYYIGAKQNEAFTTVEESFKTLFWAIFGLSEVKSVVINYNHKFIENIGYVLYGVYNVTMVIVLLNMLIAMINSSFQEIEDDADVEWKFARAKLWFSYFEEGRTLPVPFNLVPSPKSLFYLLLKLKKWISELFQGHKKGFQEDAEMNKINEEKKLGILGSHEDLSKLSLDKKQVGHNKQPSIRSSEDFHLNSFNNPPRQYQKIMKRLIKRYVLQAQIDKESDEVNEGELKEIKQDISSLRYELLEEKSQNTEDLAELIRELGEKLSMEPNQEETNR
The experiment is described as follows: Evaluation of TRPC6 channel inhibitory activity (1), FLIPR Calcium 5 Assay Kit, OAG stimulation (Compound Nos. 1-1293). It is filed as cell-based. Particulars: Human TRPC6 stably-expressing cells, OAG 30 μM, FLIPR Calcium 5 Assay Kit; read-out: Inhibitory activity (pIC50 class) (converted). The essentials: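 TRPC6 (human) stable cells, 24 h culture; Ca5 no-wash dye + probenecid 30 min; cpd 20 min; OAG 30 μM final; ΔF (pre-cpd min to post-OAG max); 0%/100% = no cpd / no cpd + no OAG; 4PL → pIC50, binned +/++/+++.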

`Cc1nc(CN2CCCC2)cn1Cc1cc(C#N)ccc1-c1ncc(CCN)cn1` [compound 1175, 4-[5-(2-aminoethyl)pyrimidin-2-yl]-3-[[2-methyl-4-(pyrrolidin-1-ylmethyl)imidazol-1-yl]methyl]benzonitrile]: the IC50 was greater than 1000 nM.
With `Cc1nc(C(F)F)cn1Cc1cc(C#N)ccc1-c1ncc(CCN)cn1` [compound 1176, 4-[5-(2-aminoethyl)pyrimidin-2-yl]-3-[[4-(difluoromethyl)-2-methylimidazol-1-yl]methyl]benzonitrile], the IC50 is 10 to 1000 nM.
For `Cc1nc(CN2CCC(F)CC2)cn1Cc1cc(C#N)ccc1-c1ncc(CCN)cn1` [compound 1177, 4-[5-(2-aminoethyl)pyrimidin-2-yl]-3-[[4-[(4-fluoropiperidin-1-yl)methyl]-2-methylimidazol-1-yl]methyl]benzonitrile], the IC50 is greater than 1000 nM.
With `Cc1nc(CN(C)C)cn1Cc1cc(C#N)ccc1-c1ncc(CCN)cn1` [compound 1178, 4-[5-(2-aminoethyl)pyrimidin-2-yl]-3-[[4-[(dimethylamino)methyl]-2-methylimidazol-1-yl]methyl]benzonitrile], the IC50 is greater than 1000 nM.
With `Cc1nc(CN2CCC(C(F)(F)F)CC2)cn1Cc1cc(C#N)ccc1-c1ncc(CCN)cn1` [compound 1180, 4-[5-(2-aminoethyl)pyrimidin-2-yl]-3-[[2-methyl-4-[[4-(trifluoromethyl)piperidin-1-yl]methyl]imidazol-1-yl]methyl]benzonitrile] the figure was greater than 1000 nM; with `Cc1nc(CNC(C)C)cn1Cc1cc(C#N)ccc1-c1ncc(CCN)cn1` [compound 1181, 4-[5-(2-aminoethyl)pyrimidin-2-yl]-3-[[2-methyl-4-[(propan-2-ylamino)methyl]imidazol-1-yl]methyl]benzonitrile], greater than 1000 nM.
With `N#Cc1ccc(-c2ncc(CCN)cn2)c(Cn2ccnc2-c2ccccc2)c1` [compound 1182, 4-[5-(2-aminoethyl)pyrimidin-2-yl]-3-[(2-phenylimidazol-1-yl)methyl]benzonitrile] the figure was greater than 1000 nM.
Turning to `N#Cc1ccc(-c2ncc(CN)cn2)c(Cn2ccnc2-c2ccccc2)c1` [compound 1183], the IC50 was greater than 1000 nM.
Regarding `CC(C)Cc1cn(Cc2cc(C#N)ccc2-c2ncc(CCN)cn2)nn1` [compound 1184, 4-[5-(2-aminoethyl)pyrimidin-2-yl]-3-[[4-(2-methylpropyl)triazol-1-yl]methyl]benzonitrile], the IC50 is less than 10 nM.
As for `CC(C)c1cn(Cc2cc(C#N)ccc2-c2ncc(CCN)cn2)nn1` [compound 1185, 4-[5-(2-aminoethyl)pyrimidin-2-yl]-3-[(4-propan-2-yltriazol-1-yl)methyl]benzonitrile], the IC50 was less than 10 nM.
For the molecule `N#Cc1ccc(-c2ncc(CCN)cn2)c(Cn2cc(C3CCCCC3)nn2)c1` [compound 1186, 4-[5-(2-aminoethyl)pyrimidin-2-yl]-3-[(4-cyclohexyltriazol-1-yl)methyl]benzonitrile], the IC50 was less than 10 nM.
As to `CC(C)Cc1cn(Cc2cc(C#N)ccc2-c2ncc(CN)cn2)nn1` [compound 1188, 4-[5-(aminomethyl)pyrimidin-2-yl]-3-[[4-(2-methylpropyl)triazol-1-yl]methyl]benzonitrile], the IC50 is 10 to 1000 nM.
As for `CC(C)c1cn(Cc2cc(C#N)ccc2-c2ncc(CN)cn2)nn1` [compound 1189, 4-[5-(aminomethyl)pyrimidin-2-yl]-3-[(4-propan-2-yltriazol-1-yl)methyl]benzonitrile], the IC50 is 10 to 1000 nM.
Regarding `N#Cc1ccc(-c2ncc(CN)cn2)c(Cn2cc(C3CCCCC3)nn2)c1` [compound 1190, 4-[5-(aminomethyl)pyrimidin-2-yl]-3-[(4-cyclohexyltriazol-1-yl)methyl]benzonitrile], the IC50 is 10 to 1000 nM.
In the case of `N#Cc1ccc(-c2ncc(CN)cn2)c(Cn2cc(C3CC3)nn2)c1` [compound 1191, 4-[5-(aminomethyl)pyrimidin-2-yl]-3-[(4-cyclopropyltriazol-1-yl)methyl]benzonitrile], the IC50 is 10 to 1000 nM.
Take `Cc1nc(-c2cncc(F)c2)cn1Cc1cc(C#N)ccc1-c1ncc(CN)cn1` [compound 1192, 4-[5-(aminomethyl)pyrimidin-2-yl]-3-[[4-(5-fluoropyridin-3-yl)-2-methylimidazol-1-yl]methyl]benzonitrile]: the IC50 was greater than 1000 nM.
Regarding `Cc1nc(-c2cncc(F)c2)cn1Cc1cc(C#N)ccc1-c1ccc(CCN)cn1` [compound 1193, 4-[5-(2-aminoethyl)pyridin-2-yl]-3-[[4-(5-fluoropyridin-3-yl)-2-methylimidazol-1-yl]methyl]benzonitrile], the IC50 was 10 to 1000 nM.
Turning to `Cc1nc(-c2cncc(F)c2)cn1Cc1cc(C#N)ccc1-c1ncc(CCN)cn1` [compound 1194, 4-[5-(2-aminoethyl)pyrimidin-2-yl]-3-[[4-(5-fluoropyridin-3-yl)-2-methylimidazol-1-yl]methyl]benzonitrile], the IC50 is greater than 1000 nM.
Turning to `CC(C)Cn1cc(Cc2cc(C#N)ccc2-c2ncc(CN)cn2)cn1` [compound 1196, 4-[5-(aminomethyl)pyrimidin-2-yl]-3-[[1-(2-methylpropyl)pyrazol-4-yl]methyl]benzonitrile], the IC50 is 10 to 1000 nM.
`N#Cc1ccc(-c2ncc(CCN)cn2)c(Cc2cnn(-c3ccccn3)c2)c1` [compound 1197, 4-[5-(2-aminoethyl)pyrimidin-2-yl]-3-[(1-pyridin-2-ylpyrazol-4-yl)methyl]benzonitrile]: the IC50 is 10 to 1000 nM.
Take `Cc1nn(CC(C)C)cc1Cc1cc(C#N)ccc1-c1ncc(CCN)cn1` [compound 1199, 4-[5-(2-aminoethyl)pyrimidin-2-yl]-3-[[3-methyl-1-(2-methylpropyl)pyrazol-4-yl]methyl]benzonitrile]: the IC50 is less than 10 nM.
Consider `N#Cc1ccc(-c2ncc(CCN)cn2)c(Cn2cc(N3CCOCC3)cn2)c1` [compound 1200, 4-[5-(2-aminoethyl)pyrimidin-2-yl]-3-[(4-morpholin-4-ylpyrazol-1-yl)methyl]benzonitrile], for which the IC50 was 10 to 1000 nM.
For the molecule `N#Cc1ccc(-c2ncc(CCN)cn2)c(Cn2cc(-c3ccccc3)cn2)c1` [compound 1201, 4-[5-(2-aminoethyl)pyrimidin-2-yl]-3-[(4-phenylpyrazol-1-yl)methyl]benzonitrile], the IC50 is 10 to 1000 nM.
With `Cc1nn(-c2ccccn2)cc1Cc1cc(C#N)ccc1-c1ncc(CCN)cn1` [compound 1202, 4-[5-(2-aminoethyl)pyrimidin-2-yl]-3-[(3-methyl-1-pyridin-2-ylpyrazol-4-yl)methyl]benzonitrile] the figure was less than 10 nM; with `Cc1nn(-c2ccccn2)cc1Cc1cc(C#N)ccc1-c1ccc(CCN)cn1` [compound 1203, 4-[5-(2-aminoethyl)pyridin-2-yl]-3-[(3-methyl-1-pyridin-2-ylpyrazol-4-yl)methyl]benzonitrile], less than 10 nM.
In the case of `Cc1cc(Cc2cc(C#N)ccc2-c2ncc(CCN)cn2)cc(N2CCOCC2)n1` [compound 1204, 4-[5-(2-aminoethyl)pyrimidin-2-yl]-3-[(2-methyl-6-morpholin-4-ylpyridin-4-yl)methyl]benzonitrile], the IC50 is 10 to 1000 nM.
As to `Cn1nc(-c2ccccn2)cc1Cc1cc(C#N)ccc1-c1ncc(CN)cn1` [compound 1205, 4-[5-(aminomethyl)pyrimidin-2-yl]-3-[(2-methyl-5-pyridin-2-ylpyrazol-3-yl)methyl]benzonitrile], the IC50 was less than 10 nM.
On to `CCN(CC)c1cc(Cc2cc(C#N)ccc2-c2ncc(CN)cn2)n(C)n1` [compound 1206, 4-[5-(aminomethyl)pyrimidin-2-yl]-3-[[5-(diethylamino)-2-methylpyrazol-3-yl]methyl]benzonitrile], for which the IC50 is less than 10 nM.
With `CCN(CC)c1cc(Cc2cc(C#N)ccc2-c2ncc(CCN)cn2)n(C)n1` [compound 1207, 4-[5-(2-aminoethyl)pyrimidin-2-yl]-3-[[5-(diethylamino)-2-methylpyrazol-3-yl]methyl]benzonitrile] the figure was less than 10 nM.
For the molecule `CCN(CC)c1cc(Cc2cc(C#N)ccc2-c2ccc(CCN)cn2)n(C)n1` [compound 1208, 4-[5-(2-aminoethyl)pyridin-2-yl]-3-[[5-(diethylamino)-2-methylpyrazol-3-yl]methyl]benzonitrile], the IC50 is less than 10 nM.
Consider `CN(C)c1cc(Cc2cc(C#N)ccc2-c2ncc(CN)cn2)n(C)n1` [compound 1209, 4-[5-(aminomethyl)pyrimidin-2-yl]-3-[[5-(dimethylamino)-2-methylpyrazol-3-yl]methyl]benzonitrile], for which the IC50 is 10 to 1000 nM.
